Measurements reported in patent publication US20090246212A1, “DEVELOPMENT OF METHOD FOR SCREENING FOR DRUG CAPABLE OF IMPROVING PRODUCTION OF REGULATORY T CELLS AND METHOD FOR PRODUCING REGULATORY T CELLS USING IMMUNOSUPPRESSIVE MACROLIDE ANTIBIOTIC” (KYOTO UNIVERSITY, priority 2005, published 2009).

Tests used:
[1] = tested on: CD45RA^+CD25^+CD4^+ T cells; assay: Expansion culture of CD45RA^+CD25^+CD4^+ T cells with anti-CD3/CD28 beads and IL-2, rapamycin added; type: cell-based, human; details: for increase of cell number in the culture product: 50 days after start
Procedure: Venous blood was obtained from healthy volunteers (human). Peripheral blood mononuclear cell (PBMC) was isolated by Ficoll-Hypaque (Amersham Biosciences-Uppsala) density gradient centrifugation. The cells were stained with allophycocyanin (APC)-conjugated anti-CD4 monoclonal antibody (mAb), phycoerythrin (PE)-conjugated anti-CD25 mAb, and fluorescein isothiocyanate (FITC)-conjugated anti-CD45RA mAb for 30 min at 4° C. in the dark, after which the following six different cell fractions were isolated using a BD FACSAria cell sorter (Becton Dickinson)(see FIG. 1A).
(§1) CD45RA^+CD25^+CD4^+ T cells or CD45RA^+CD25^−CD4^+ T cells (5×10̂4 cells/well) separated as described above were stimulated with anti-human CD3 and CD28 conjugate beads in a ratio of 4 beads per cell in a 96-well round-bottomed culture plate containing 200 μl per well of a proliferation medium (AlyS505N (produced by Cell Science & Technology Institute) supplemented with 2% human AB serum) in the presence of human IL-2 (1000 U/ml, produced by Cell Science & Technology Institute). Rapamycin (20 nM, produced by Sigma) was added as appropriate. Every 3 to 4 days, half of the medium was replaced with a fresh proliferation medium containing IL-2. If necessary, the cells were separated and repeatedly re-stimulated with anti-CD3/CD28 antibody conjugated beads every 10 to 14 days. Two days before functional assay, the anti-CD3/CD28 antibody conjugated beads were removed magnetically, and the cells were cultured along with 100 U/ml IL-2 in the absence of rapamycin. After 3 times of washing, the cells were used for functional assay.

[2] = tested on: CD45RA^+CD25^+CD4^+ T cell line; assay: Suppression assay ([^3H] thymidine uptake) of the rapamycin-cultured CD45RA^+CD25^+CD4^+ T cell line; type: cell-based, human; details: then 2 days without rapamycin
Procedure: as §1, with “Two days before functional assay, the anti-CD3/CD28 antibody conjugated beads were removed magnetically, and the cells were cultured along with 100 U/ml IL-2 in the absence of rapamycin. After 3 times of washing, the cells were used for functional assay.” left out
(§2) The indicated number of CD45RA^+CD25^+CD4^+ T cells just isolated from human peripheral blood, expanded CD45RA^+CD25^+CD4^+ T cell lines, or expanded CD45RA^+CD25^−CD4^+ T cell line, alone or along with self responder CD4^+ T cells (5×10̂4 cells/well), were stimulated with radiated (40 Gy) allogenic PBMC (1×10̂5 cells/well) in a round-bottomed 96-well microplate containing a proliferation medium. […] Subsequently, the cells were recovered, and [^3H] thymidine uptake was measured using 1450 Microbeta TriLux (Wallac).

[3] = tested on: CD45RA^+CD25^−CD4^+ T cell line; assay: Suppression assay ([^3H] thymidine uptake) of the rapamycin-cultured CD45RA^+CD25^−CD4^+ T cell line; type: cell-based, human; details: then 2 days without rapamycin
Procedure: as §1, with “Two days before functional assay, the anti-CD3/CD28 antibody conjugated beads were removed magnetically, and the cells were cultured along with 100 U/ml IL-2 in the absence of rapamycin. After 3 times of washing, the cells were used for functional assay.” left out
as §2

[4] = tested on: CD45RA^+CD25^−CD4^+ T cells; assay: FACS phenotype analysis of the T cell line from CD45RA^+CD25^−CD4^+ T cells cultured with rapamycin; type: cell-based, human; details: rapamycin 20 nM from day 40, collected day 50
Procedure: PBMC derived from the subjects, or expanded T cell line were incubated with various antibodies for 30 min at 4° C. in the dark, washed, and analyzed using a BD FACSAria cell sorter and a FACSDiVA software (Becton Dickinson). The antibodies used were perCP-conjugated anti-CD4 mAb, biotin-conjugated anti-CD25 mAb, FITC-conjugated anti-CD45RA mAb, PE-conjugated anti-CD45RB mAb, anti-CD45RO mAb, anti-CD62L mAb, anti-CD38 mAb, anti-GITR mAb, and anti-TNFRII mAb. For intracellular staining with CTLA-4, the cells were subjected to cell surface staining, fixation, and permeabilization with Cytofix/Cytoperm solution (Becton Dickinson), and then intracellularly stained with PE-conjugated anti-CTLA-4.
CD45RA^+CD25^+CD4^+ T cells or CD45RA^+CD25^−CD4^+ T cells in human peripheral blood separated in the same manner as Example 1 (5×10̂4 cells/well) were stimulated with anti-human CD3 and CD28 conjugate beads in a ratio of 4 beads per cell in a 96-well round-bottomed culture plate containing 200 μl per well of a proliferation medium (AlyS505N (produced by Cell Science & Technology Institute) supplemented with 2% human AB serum) in the presence of human IL-2 (1000 U/ml, produced by Cell Science & Technology Institute). Rapamycin (20 nM, produced by Sigma) was added to the medium 0 or 40 days after the start of cultivation. Every 3 to 4 days, half of the medium was replaced with a fresh proliferation medium containing IL-2. If necessary, the cells were separated and repeatedly re-stimulated with anti-CD3/CD28 antibody conjugate beads every 10 to 14 days. Fifty days after the start of cultivation, the cells were collected and used for FACS analysis.
Expanded T cell lines were incubated with various antibodies for 30 minutes at 4° C. in the dark, washed, and analyzed using BD FACSAria cell sorter and FACSDiVA software (Becton Dickinson). The antibodies and staining conditions used were the same as Example 1.

[5] = tested on: experimental allergic encephalomyelitis model; details: model of multiple sclerosis; cited from earlier work
IgE-like antibody = details: in vivo; cited from earlier work

Which “increase of cell number in the culture product” value (“increase of cell number” for short) ([1]; rapamycin 20 nM added 7 days after start) does the source give for `CO[C@H]1C[C@@H]2CC[C@@H](C)[C@@](O)(O2)C(=O)C(=O)N2CCCC[C@H]2C(=O)O[C@H]([C@H](C)C[C@@H]2CC[C@@H](O)[C@H](OC)C2)CC(=O)[C@H](C)/C=C(\C)[C@@H](O)[C@@H](OC)C(=O)[C@H](C)C[C@H](C)/C=C/C=C/C=C/1C` [rapamycin] here?
Its value is “about 60 times”.

What about the “proliferation of the CD45RA^+CD25^+CD4^+ T cell line” value ([1]; rapamycin 20 nM added 7 days or 39 days after start of cultivation) of the same compound?
Its value is “suppressed after the time of addition”.

And the “increase of cell number” value ([1]; rapamycin 20 nM added 39 days after start)?
Its value is “about 700 times”.

What about the “proliferation of CD45RA^+CD25^+CD4^+ T cells” value ([1]; rapamycin 20 nM added from the start of cultivation) of the same compound?
Its value is “suppressed”.

What about the “increase of cell number” value ([1]; rapamycin 20 nM added from the start of cultivation (day 0)) of the same compound?
The value was “about 20 times”.

What about the “T cell line's effect on proliferation of CD4^+ T cells in response to alloantigen-presenting cells” value (from here on “T cell line's effect on proliferation”) ([2]; rapamycin added day 7 or day 39, collected 50 days after start) of the same compound?
Its value is “strongly suppressed”.

What about the “T cell line's effect on proliferation” value ([2]; rapamycin from day 0, 50 days culture) of the same compound?
The value was “strongly suppressed”.

What about the “T cell line's effect on proliferation” value ([3]; rapamycin added day 19, about 35 days after start) of the same compound?
The value was “strongly suppressed”.

And the “T cell line's effect on proliferation” value ([3]; rapamycin from day 0, about 35 days culture)?
The value was “strongly suppressed”.

What about the “CD25 expression relative to CD45RA^−CD25^high+CD4^+ T cells in peripheral blood” value [4] of the same compound?
The value was “about ⅕”.

And the “CD45RA expression intensity relative to CD45RA^+CD25^−CD4^+ T cells at the start of cultivation” value [4]?
Its value is “about 1 time”.

And the “CD45RO phenotype of the T cell line” value [4]?
The value was “negative”.

And the “CD62L expression relative to CD45RA^−CD25^high+CD4^+ T cells in peripheral blood” value [4]?
The value was “about ⅓”.

And the “GITR / CTLA4 / CD45RB phenotype of the T cell line” value [4]?
The value was “GITR^+CTLA4^+CD45RB^high+”.

What about the “efficacy in experimental allergic encephalomyelitis model” value [5] of the same compound?
Its value is “effective”.

What about the “formation of IgE-like antibody” value (IgE-like antibody) of the same compound?
The value was “effectively inhibited”.
